Activity calls are given as the source filed them.
What was measured:
[1] = Trypanosoma cruzi growth suppression in host cells – NIH3T3 host cells, beta-gal luminescence, confirmation (AID 2044); assay type: functional, cell-based;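 further: intracellular parasites grown in NIH/3T3 mouse fibroblasts as host cells; luminescent beta-galactosidase reporter signal from transgenic T. cruzi replicating inside host cells; inhibitors lower the luminescence signal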
[2] = NIH3T3 cell viability loss – ATP luminescence, mouse fibroblasts, counter-screen, dose response (AID 2010); assay type: functional, cell-based;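 further: cells exposed to compound for about 90 hours before reading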
Protein Wnt-3a = Protein Wnt-3a (Mus musculus, UniProt P27467); assay: antagonism of Wnt3a pathway luciferase reporter – Wnt-LIGHT cells, luminescence, selectivity assay for Gli-SUFU antagonist project, dose response (AID 651570); assay type: functional; details: read-out: IC50_Mean;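 further: Wnt-LIGHT reporter cells stimulated with conditioned medium from Wnt3a-producing cells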
[3] = biological target: T1, High affinity choline transporter 1 (Homo sapiens, UniProt Q9GZV3); assay: human choline transporter potentiators, potency – cell-based, 10-point CRC, membrane potential dye, dose response (AID 602376); assay type: functional
T1 sequence (Q9GZV3 whole entry): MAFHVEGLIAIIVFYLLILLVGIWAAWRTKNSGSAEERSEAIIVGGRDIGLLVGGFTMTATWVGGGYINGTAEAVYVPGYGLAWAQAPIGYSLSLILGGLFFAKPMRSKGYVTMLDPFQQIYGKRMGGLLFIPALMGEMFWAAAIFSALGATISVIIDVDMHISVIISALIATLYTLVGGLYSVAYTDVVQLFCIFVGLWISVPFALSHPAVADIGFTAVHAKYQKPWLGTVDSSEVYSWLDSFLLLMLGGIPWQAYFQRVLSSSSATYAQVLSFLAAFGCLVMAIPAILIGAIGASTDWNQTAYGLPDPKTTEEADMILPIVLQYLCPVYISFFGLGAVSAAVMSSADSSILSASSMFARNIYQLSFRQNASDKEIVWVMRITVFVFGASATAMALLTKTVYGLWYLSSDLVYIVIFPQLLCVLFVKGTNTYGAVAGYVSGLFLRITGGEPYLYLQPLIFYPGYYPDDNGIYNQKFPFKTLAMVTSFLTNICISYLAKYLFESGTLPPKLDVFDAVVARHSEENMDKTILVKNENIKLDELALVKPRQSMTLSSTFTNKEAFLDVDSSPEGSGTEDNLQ

[4] = biological target: Potassium voltage-gated channel subfamily KQT member 2 (Rattus norvegicus, UniProt O88943); assay: blockers of KCNQ2 channel current – cell-based, automated electrophysiology, set II, rat KCNQ2, dose response (AID 588637); assay type: functional
[5] = biological target: T1, High affinity choline transporter 1; assay: human choline transporter blockers, potency – cell-based, 5-point CRC, membrane potential dye, dose response (AID 504840); assay type: functional
[6] = biological target: T1, High affinity choline transporter 1; assay: human choline transporter blockers, potency – cell-based, 10-point CRC, membrane potential dye, dose response (AID 588401); assay type: functional;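 further: membrane potential dye fluorescence of choline-evoked depolarization via CHT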
[7] = biological target: T2, Apoptotic protease-activating factor 1 (Homo sapiens, UniProt O14727); assay: SAR analysis of small molecule Activators of Apaf-1 in a Fluorescent assay.; assay type: functional; details: read-out: EC50_Mean;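 further: caspase-3 cleavage of fluorogenic Rh110 DEVD substrate downstream of apoptosome activation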
T2 sequence (O14727 whole entry): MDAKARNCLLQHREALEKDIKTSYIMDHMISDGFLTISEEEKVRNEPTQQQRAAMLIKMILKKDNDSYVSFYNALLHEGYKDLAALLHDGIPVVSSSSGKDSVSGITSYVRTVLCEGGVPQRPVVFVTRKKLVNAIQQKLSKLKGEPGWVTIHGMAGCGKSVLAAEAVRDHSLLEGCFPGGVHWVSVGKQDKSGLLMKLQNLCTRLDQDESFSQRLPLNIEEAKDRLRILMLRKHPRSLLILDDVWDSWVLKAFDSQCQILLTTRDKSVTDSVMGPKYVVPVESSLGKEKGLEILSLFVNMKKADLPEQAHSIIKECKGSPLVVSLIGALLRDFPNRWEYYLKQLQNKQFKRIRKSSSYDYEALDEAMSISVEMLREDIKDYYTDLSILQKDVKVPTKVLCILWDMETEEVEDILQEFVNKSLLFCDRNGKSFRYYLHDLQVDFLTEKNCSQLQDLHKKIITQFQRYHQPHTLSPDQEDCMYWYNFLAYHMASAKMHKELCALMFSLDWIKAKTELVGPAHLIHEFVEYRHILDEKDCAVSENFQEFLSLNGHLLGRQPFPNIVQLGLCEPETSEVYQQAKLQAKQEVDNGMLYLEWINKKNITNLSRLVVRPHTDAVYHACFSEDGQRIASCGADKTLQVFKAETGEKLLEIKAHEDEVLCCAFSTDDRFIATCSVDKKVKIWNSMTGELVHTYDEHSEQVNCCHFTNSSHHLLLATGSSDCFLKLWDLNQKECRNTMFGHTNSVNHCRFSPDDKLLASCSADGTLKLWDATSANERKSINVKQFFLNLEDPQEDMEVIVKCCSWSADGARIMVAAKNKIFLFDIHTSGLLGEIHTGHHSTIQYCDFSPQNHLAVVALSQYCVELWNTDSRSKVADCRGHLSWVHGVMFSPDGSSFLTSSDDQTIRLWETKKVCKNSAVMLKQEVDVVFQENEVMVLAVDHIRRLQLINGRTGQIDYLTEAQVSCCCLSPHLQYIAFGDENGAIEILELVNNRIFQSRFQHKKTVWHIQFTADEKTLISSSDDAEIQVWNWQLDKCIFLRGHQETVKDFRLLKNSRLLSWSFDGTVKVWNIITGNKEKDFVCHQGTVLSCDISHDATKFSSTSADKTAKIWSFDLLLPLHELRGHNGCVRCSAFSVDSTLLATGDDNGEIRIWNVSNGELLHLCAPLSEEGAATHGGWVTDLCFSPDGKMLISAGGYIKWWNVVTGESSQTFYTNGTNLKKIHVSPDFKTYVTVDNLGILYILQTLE

[8] = biological target: T3, Sentrin-specific protease 8 (Homo sapiens, UniProt Q96LD8); assay: inhibition of human SENP8 cleavage activity – biochemical, luminescence, SAR follow-up (AID 504501); assay type: functional
T3 sequence (Q96LD8 whole entry): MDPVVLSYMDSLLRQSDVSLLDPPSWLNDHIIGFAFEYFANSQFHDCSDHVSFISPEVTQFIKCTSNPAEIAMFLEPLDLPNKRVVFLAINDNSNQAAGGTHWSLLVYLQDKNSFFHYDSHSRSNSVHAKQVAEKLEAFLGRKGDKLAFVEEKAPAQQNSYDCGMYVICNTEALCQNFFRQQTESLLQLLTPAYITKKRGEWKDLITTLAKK

Caspase-3 = biological target: T4, Caspase-3 (Homo sapiens, UniProt P42574); assay: SAR Analysis of small molecule inhibitors of Sentrin-specific proteases (SENPs) using a Caspase-3 Selectivity assay. [Related pubchem assays (depositor defined):AID2540, AID2599, AID434973, AID489001]; assay type: functional
T4 sequence (P42574 whole entry): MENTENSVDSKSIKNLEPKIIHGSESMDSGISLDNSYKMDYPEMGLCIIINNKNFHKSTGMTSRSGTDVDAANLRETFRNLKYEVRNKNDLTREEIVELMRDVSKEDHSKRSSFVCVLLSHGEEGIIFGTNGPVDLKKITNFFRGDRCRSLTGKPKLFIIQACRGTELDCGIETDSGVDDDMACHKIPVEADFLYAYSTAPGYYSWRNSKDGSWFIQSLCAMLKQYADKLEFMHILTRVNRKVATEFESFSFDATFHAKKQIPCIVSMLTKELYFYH

[9] = biological target: T5, Sentrin-specific protease 6 (Homo sapiens, UniProt Q9GZR1); assay: SAR Analysis of small molecule inhibitors of Sentrin-specific protease 6 (SENP6) using a Luminescent assay. [Related pubchem assays (depositor defined):AID2582, AID2599]; assay type: functional
T5 sequence (Q9GZR1 whole entry): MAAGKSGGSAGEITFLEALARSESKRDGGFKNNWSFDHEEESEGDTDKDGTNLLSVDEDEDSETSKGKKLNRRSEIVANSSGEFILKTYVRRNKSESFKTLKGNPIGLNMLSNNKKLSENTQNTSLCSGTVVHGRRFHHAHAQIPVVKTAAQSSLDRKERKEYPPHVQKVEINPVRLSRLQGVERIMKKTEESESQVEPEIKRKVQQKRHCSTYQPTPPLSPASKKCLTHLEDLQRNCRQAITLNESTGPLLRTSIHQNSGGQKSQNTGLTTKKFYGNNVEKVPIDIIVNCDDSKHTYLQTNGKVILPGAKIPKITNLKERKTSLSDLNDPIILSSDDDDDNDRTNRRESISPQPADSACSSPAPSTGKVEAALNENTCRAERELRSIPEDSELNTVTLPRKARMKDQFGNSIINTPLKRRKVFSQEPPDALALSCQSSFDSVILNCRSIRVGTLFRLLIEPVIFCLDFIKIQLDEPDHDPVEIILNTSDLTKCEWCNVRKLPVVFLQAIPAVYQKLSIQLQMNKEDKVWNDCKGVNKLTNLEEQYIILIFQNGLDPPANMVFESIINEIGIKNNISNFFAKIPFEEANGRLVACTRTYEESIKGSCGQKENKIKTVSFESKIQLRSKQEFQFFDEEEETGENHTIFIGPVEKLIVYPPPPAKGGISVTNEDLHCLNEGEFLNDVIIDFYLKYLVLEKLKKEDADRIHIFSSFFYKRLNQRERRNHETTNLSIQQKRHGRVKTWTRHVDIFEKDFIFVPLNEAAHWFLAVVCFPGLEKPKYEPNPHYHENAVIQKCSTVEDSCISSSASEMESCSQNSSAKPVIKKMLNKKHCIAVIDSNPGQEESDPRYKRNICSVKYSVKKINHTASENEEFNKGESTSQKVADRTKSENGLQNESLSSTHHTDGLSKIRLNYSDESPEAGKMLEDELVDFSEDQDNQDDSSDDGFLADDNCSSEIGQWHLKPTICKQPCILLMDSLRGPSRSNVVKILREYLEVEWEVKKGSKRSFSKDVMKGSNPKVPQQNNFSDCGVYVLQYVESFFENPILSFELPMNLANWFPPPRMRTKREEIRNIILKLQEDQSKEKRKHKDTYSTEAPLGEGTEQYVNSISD

[10] = biological target: T6, Sentrin-specific protease 7 (Homo sapiens, UniProt Q9BQF6); assay: inhibition of human SENP7 cleavage activity – biochemical, luminescence, SAR follow-up (AID 504497); assay type: functional
T6 sequence (Q9BQF6 whole entry): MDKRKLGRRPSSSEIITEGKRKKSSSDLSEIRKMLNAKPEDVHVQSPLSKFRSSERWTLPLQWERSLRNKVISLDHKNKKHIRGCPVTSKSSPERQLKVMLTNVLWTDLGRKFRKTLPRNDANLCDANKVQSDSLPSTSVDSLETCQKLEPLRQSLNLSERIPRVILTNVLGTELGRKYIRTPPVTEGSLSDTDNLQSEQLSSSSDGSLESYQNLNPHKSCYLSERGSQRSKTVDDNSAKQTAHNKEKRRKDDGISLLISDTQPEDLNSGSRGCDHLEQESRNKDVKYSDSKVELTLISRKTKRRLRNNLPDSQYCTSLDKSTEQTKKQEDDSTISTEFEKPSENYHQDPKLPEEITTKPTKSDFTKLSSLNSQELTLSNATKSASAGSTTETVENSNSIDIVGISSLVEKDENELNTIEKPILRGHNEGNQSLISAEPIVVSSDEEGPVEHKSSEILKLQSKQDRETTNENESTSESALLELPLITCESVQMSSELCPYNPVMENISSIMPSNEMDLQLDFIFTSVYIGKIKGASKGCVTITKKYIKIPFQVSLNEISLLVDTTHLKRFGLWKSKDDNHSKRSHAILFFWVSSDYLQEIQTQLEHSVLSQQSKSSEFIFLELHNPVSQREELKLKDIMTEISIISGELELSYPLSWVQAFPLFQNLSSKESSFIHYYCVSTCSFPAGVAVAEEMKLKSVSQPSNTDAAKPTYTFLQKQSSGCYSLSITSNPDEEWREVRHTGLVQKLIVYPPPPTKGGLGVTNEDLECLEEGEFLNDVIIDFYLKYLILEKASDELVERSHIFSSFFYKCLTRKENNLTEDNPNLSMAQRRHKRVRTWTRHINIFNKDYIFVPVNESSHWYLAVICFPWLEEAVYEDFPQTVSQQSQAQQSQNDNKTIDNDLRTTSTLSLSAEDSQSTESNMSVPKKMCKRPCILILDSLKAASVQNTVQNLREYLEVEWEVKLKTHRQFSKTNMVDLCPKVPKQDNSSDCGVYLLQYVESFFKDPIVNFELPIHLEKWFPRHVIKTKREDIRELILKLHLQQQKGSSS

[11] = biological target: Melanin-concentrating hormone receptor 1 (Homo sapiens, UniProt Q99705); assay: Late-stage fluorescence-based counterscreen for antagonists of the G-protein coupled receptor 7 (GPR7): cell-based dose response assay to identify antagonists of the melanin-concentrating hormone receptor 1 (MCHR1) Set 5.; assay type: functional
[12] = biological target: Luciferin 4-monooxygenase (Photinus pyralis, UniProt P08659); assay: inhibition of purified Photinus pyralis luciferase – biochemical, luminescence, dose response (AID 1891)
[13] = Luminescence Cell-Based Dose Confirmation HTS to Identify Inhibitors of Platelet Dense Granule Release. [Related pubchem assays: 1663 (Primary HTS), 1678 (Summary of Project)]; assay type: functional

Sequence of Potassium voltage-gated channel subfamily KQT member 2 (O88943 whole entry): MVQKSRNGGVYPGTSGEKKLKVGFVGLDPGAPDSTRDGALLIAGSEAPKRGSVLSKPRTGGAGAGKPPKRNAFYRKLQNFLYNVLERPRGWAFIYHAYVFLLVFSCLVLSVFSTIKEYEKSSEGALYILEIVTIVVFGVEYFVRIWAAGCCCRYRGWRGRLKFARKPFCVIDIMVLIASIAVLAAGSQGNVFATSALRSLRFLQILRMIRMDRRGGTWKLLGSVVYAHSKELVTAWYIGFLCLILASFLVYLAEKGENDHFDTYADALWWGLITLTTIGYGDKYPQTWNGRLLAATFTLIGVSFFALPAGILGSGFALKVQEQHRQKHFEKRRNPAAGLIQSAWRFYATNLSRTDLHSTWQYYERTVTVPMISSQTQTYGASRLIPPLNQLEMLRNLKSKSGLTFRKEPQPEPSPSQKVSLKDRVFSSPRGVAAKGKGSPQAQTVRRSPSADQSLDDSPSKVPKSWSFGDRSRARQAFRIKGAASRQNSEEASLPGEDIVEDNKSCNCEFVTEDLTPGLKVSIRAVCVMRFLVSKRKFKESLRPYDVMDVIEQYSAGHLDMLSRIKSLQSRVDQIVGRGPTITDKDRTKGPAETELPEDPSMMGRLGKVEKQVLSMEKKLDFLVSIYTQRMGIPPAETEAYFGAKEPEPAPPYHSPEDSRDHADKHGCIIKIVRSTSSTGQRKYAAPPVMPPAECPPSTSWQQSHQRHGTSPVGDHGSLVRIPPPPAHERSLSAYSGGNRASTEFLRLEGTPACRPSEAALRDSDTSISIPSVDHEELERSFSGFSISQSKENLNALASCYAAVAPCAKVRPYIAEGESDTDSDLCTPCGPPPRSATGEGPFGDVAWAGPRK
Sequence of Melanin-concentrating hormone receptor 1 (Q99705 whole entry): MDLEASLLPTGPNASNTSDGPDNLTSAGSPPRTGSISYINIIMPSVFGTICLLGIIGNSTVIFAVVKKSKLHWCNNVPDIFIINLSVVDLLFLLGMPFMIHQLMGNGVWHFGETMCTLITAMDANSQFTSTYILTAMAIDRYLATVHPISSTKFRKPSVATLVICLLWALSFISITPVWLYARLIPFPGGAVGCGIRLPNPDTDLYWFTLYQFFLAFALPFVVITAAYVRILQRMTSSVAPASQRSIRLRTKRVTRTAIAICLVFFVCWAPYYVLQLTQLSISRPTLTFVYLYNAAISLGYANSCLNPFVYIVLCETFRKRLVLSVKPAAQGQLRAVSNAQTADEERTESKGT
Sequence of Luciferin 4-monooxygenase (P08659 whole entry): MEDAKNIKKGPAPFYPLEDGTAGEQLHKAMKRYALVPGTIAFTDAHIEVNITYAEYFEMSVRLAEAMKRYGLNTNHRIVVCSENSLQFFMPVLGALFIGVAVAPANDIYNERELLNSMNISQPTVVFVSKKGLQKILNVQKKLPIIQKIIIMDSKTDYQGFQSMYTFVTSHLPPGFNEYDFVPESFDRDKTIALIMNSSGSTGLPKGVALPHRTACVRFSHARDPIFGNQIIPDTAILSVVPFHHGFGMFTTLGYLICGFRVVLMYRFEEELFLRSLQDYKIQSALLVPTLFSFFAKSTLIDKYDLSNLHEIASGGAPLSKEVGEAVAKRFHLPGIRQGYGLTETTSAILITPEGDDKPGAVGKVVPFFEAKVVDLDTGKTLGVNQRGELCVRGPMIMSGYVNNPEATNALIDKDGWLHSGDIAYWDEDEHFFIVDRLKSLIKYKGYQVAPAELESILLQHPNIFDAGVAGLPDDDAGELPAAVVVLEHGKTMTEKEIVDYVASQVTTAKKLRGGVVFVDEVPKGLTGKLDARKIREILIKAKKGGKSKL
Sequence of Protein Wnt-3a (P27467 whole entry): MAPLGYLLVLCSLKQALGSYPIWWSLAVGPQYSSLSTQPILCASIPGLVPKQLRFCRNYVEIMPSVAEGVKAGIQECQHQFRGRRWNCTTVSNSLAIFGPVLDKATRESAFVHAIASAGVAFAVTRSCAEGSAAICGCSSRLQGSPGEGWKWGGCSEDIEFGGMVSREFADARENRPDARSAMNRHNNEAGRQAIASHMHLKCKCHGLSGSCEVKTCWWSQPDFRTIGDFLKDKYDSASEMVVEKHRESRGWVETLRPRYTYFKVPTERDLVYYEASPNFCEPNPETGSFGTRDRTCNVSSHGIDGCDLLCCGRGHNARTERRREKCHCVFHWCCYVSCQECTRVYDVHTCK

Q: For `N=c1c2c(n(Cc3ccc(F)cc3)c3c1CCC3)CCCC2`, which EC50 [1] is on record?
A: 0.639 µM (active)

Q: And the EC50 [2]?
A: > 60 µM (not active)

Q: What about the IC50 (Protein Wnt-3a) of the same compound?
A: 13.8 µM (active)

Q: For `COc1ccc(S(=O)(=O)N2c3ccccc3OCC2C)cc1` (stereo not drawn), which EC50 [3] is on record?
A: 13.9 µM (active)

Q: For `CC1CCN(C(=O)Cn2c(=O)n(Cc3ccc4c(c3)OCO4)c(=O)c3ccccc32)CC1`, which IC50 [4] is on record?
A: 3.11 µM (active)

Q: With `CCN1CCCC1CNC(=O)c1ccc2c(c1)N(Cc1cccc(Cl)c1)C(=O)c1ccccc1S2(=O)=O` (stereo not drawn) as the compound, how does the IC50 [5] read?
A: 8.64 µM (active)

Q: What about the IC50 [6] of the same compound?
A: 4.22 µM (active)

Q: With `Cc1cc(NC(=O)C2CC(c3ccc(F)cc3)=NO2)n(-c2ccccc2)n1` (stereo not drawn) as the compound, how does the EC50 [7] read?
A: > 100 µM (inactive)

Q: Which EC50 [3] does the source give for `C=CCOc1ccc(Br)cc1CNCCCN1CCOCC1` here?
A: 14.2 µM (active)

Q: For `COc1cc(C(=O)Nc2ccccc2F)ccc1OCc1ccc(Cl)cc1`, which IC50 [8] is on record?
A: > 99 µM (inactive)

Q: What about the IC50 (Caspase-3) of the same compound?
A: > 99 µM (inactive)

Q: What about the IC50 [9] of the same compound?
A: > 99 µM (inactive)

Q: What about the IC50 [10] of the same compound?
A: > 99 µM (inactive)

Q: With `COc1ccc(Oc2c(Cl)cnn(Cc3cccc4ccccc34)c2=O)cc1F` as the compound, how does the IC50 [11] read?
A: 2.47 µM (active)

Q: With `CCNC(=O)[C@H]1O[C@@H](n2cnc3c(N)nc(NCCc4ccc(CCC(=O)O)cc4)nc32)[C@H](O)[C@@H]1O` as the compound, how does the EC50 [12] read?
A: > 112 µM (not active)

Q: What about the EC50 [13] of the same compound?
A: < 0.088 µM (active)

Q: And the IC50 [5]?
A: 0.915 µM (active)

Q: And the IC50 [6]?
A: 0.807 µM (active)
